IC50 data for 23 compounds are collected here from US9670214B2, “Small molecule myristate inhibitors of Bcr-abl and methods of use” (DANA-FARBER CANCER INSTITUTE, INC., priority 2007, dated 2017).

The target of assay [1] is Bcr-abl (Ba/F3.p210 cells) (Homo sapiens, UniProt P00519). Nature of the assay: Proliferation assay (MTT), wild type Bcr-abl expressing Ba/F3 cells. Type of assay: cell-based, murine. Particulars: 48 h, drug concentrations 0.005-10 μM. The source says: (§1) Wild type Bcr-abl expressing 32D (32D.p210) and Ba/F3 (Ba/F3.p210) cells, and mutant Bcr-abl expressing cell lines Ba/F3.p210^G250E, Ba/F3.p210^E255V, Ba/F3.p210^T315I, Ba/F3.p210^F317L and Ba/F3.p210^M351T, as well as Ba/F3 cells transformed with Flt-3-ITD kinase. Additional assays included Ba/F3 cells expressing the fusion protein kinases TEL-PDGFRβ, TEL-JAK1, NPM-ALK, TEL-cKit, Tel-Bmx, Tel-FGR3, Tel-Lck and Ba/F3.TPR-met cells. All the above cell lines were maintained in RPMI-1640 medium with L-Glutamine, 10% FBS and 1 mg/ml geneticin (Gibco).
(§2) Cells (0.3-0.6×10^6/ml) were plated in duplicate or triplicate in 96-well plates containing increasing drug concentrations (0.005-10 μM). After incubation at 37° C. in 5% CO2 for 48 h, the effect of the compounds on cell viability was determined by MTT (Promega) colorimetric dye reduction method. Inhibition of cell proliferation was calculated as a percentage of growth of DMSO treated cells, and IC50 values were determined with Microsoft Excel XLfit3.

Assay [2] has as its system Ba/F3 cells (IL-3 dependent murine pro-B cell line). Nature of the assay: Proliferation assay (MTT), parental Ba/F3 cells. Type of assay: cell-based. Particulars: Mus musculus, 48 h, drug concentrations 0.005-10 μM, read-out: BaF3. The protocol:
Interleukin-3 (IL-3) dependent murine pro-B cell line, Ba/F3, and murine myeloid precursor cell line, 32D, were maintained in RPMI-1640 medium supplemented with L-Glutamine, 10% FBS and 10 U/ml recombinant murine IL-3 (Roche). Mo7e human megakarioblastic cell line was grown in RPMI-1640 medium supplemented with L-Glutamine, 20% FBS and 5 ng/ml recombinant human granulocyte macrophage cell stimulating factor (GM-CSF) (R&D Systems) or 200 ng/ml stem cell factor (SCF) (Biosource).
as §2

Assay [3] addresses Bcr-abl T315I (Ba/F3.p210^T315I cells) (Homo sapiens, UniProt P00519, T315I, cells depend on it). Nature of the assay: Proliferation assay (MTT), T315I mutant Bcr-abl expressing Ba/F3 cells. Type of assay: cell-based, murine. Particulars: 48 h, drug concentrations 0.005-10 μM.
From the text: as §1, §2

Regarding `Cn1ncc2c(Nc3ccc(OC(F)(F)F)cc3)ncnc21`, the IC50 in assay [1] and in assay [2] was over 10 µM throughout.

As for `FC(F)(F)Oc1ccc(Nc2ncnc3c2ccn3CCN2CCOCC2)cc1`, the IC50 in assay [3] was 4.27 µM; in assay [1], 0.38 µM; in assay [2], over 10 µM.

In the case of `NC(=O)CCn1ccc2c(Nc3ccc(OC(F)(F)F)cc3)ncnc21`, the IC50 in assay [3] is 6.42 µM; in assay [1], 0.49 µM; in assay [2], over 10 µM.

`CCNC(=O)CCn1ccc2c(Nc3ccc(OC(F)(F)F)cc3)ncnc21`: the results for the IC50 in assay [3], in assay [1] and in assay [2] were 9.29 µM, 2.42 µM and over 10 µM, respectively.

With `O=C(CCn1ccc2c(Nc3ccc(OC(F)(F)F)cc3)ncnc21)NCCN1CCOCC1`, the IC50 in assay [3] is 3.14 µM; in assay [1], 1.06 µM; in assay [2], over 10 µM.

`CC(C)C(CCO)NC(=O)CCn1ccc2c(Nc3ccc(OC(F)(F)F)cc3)ncnc21` (stereo not shown): the IC50 in assay [3] was 2.07 µM; in assay [1], 0.86 µM; in assay [2], over 10 µM.

On to `CCOC(=O)c1cc2c(Nc3ccc(OC(F)(F)F)cc3)ncnc2n1C`, for which the IC50 in assay [3] was over 10 µM; in assay [1], 1.5 µM; in assay [2], over 10 µM.

Turning to `Cn1c(C(=O)N2CCC(C(N)=O)CC2)cc2c(Nc3ccc(OC(F)(F)F)cc3)ncnc21`, the results for the IC50 in assay [3], in assay [1] and in assay [2] were over 10 µM, 0.82 µM and over 10 µM, respectively.

On to `Cn1c(C(=O)N2CCCC(C(N)=O)C2)cc2c(Nc3ccc(OC(F)(F)F)cc3)ncnc21` (stereo not shown), for which the IC50 is over 10 µM in assay [3], 1.98 µM in assay [1] and over 10 µM in assay [2].

Regarding `Cn1c(CO)cc2c(Nc3ccc(OC(F)(F)F)cc3)ncnc21`, the values for the IC50 in assay [3], in assay [1] and in assay [2] were over 10 µM, 0.245 µM and over 10 µM, respectively.

Turning to `CNS(=O)(=O)c1ccc(-c2ncnc(Nc3ccc(OC(F)(F)F)cc3)c2C)cc1`, the IC50 in assay [3] was found to be 2.13 µM; in assay [2], 2.5 µM.

For `Cc1c(Nc2ccc(OC(F)(F)F)cc2)ncnc1-c1ccc(CN)cc1`, the IC50 in assay [3] and in assay [2] was over 10 µM throughout.

As for `FC(F)(F)Oc1ccc(Nc2ncnc(NCCN3CCOCC3)c2Br)cc1`, the IC50 in assay [3] and in assay [2] was over 10 µM each time.

Consider `NC(=O)C1CCCN(c2ncnc(Nc3ccc(OC(F)(F)F)cc3)c2Br)C1` (stereo not shown), for which the IC50 in assay [3] and in assay [2] was over 10 µM throughout.

As to `FC(F)(F)Oc1ccc(Nc2cc(-n3ccnc3NCCN3CCOCC3)ncn2)cc1`, the IC50 in assay [3] and in assay [2] was over 10 µM in each case.

Turning to `FC(F)(F)Oc1ccc(Nc2cc(-n3ccnc3Nc3ccc(OC(F)(F)F)cc3)ncn2)cc1`, the IC50 in assay [3] and in assay [2] was over 10 µM each time.

As for `Nc1cc(C2CC2)n(-c2cc(Nc3ccc(OC(F)(F)F)cc3)ncn2)n1`, the IC50 in assay [3] and in assay [2] was over 10 µM throughout.

In the case of `FC(F)(F)Oc1ccc(Nc2cc(-n3ccc4cccnc43)ncn2)cc1`, the IC50 in assay [3] and in assay [2] was over 10 µM throughout.

On to `FC(F)(F)Oc1ccc(Nc2cc(-c3cn[nH]c3)ncn2)cc1`, for which the IC50 in assay [3] is about 0.46 µM; in assay [2], over 10 µM.

`CC(C)Cn1cc(-c2cc(Nc3ccc(OC(F)(F)F)cc3)ncn2)cn1`: the IC50 is 1.55 µM in assay [3] and over 10 µM in assay [2].

For `O=C(NCCO)c1cc2c(Nc3ccc(OC(F)(F)F)cc3)ncnc2s1` [N-(2-hydroxyethyl)-4-(4-(trifluoromethoxy)phenylamino)thieno[2,3-d]pyrimidine-6-carboxamide], the IC50 in assay [3] and in assay [2] was over 10 µM throughout.

As to `Cc1nn(C)c(C)c1-c1cc(Nc2ccc(OC(F)(F)F)cc2)ncn1` [N-(4-(trifluoromethoxy)phenyl)-6-(1,3,5-trimethyl-1H-pyrazol-4-yl)pyrimidin-4-amine], the IC50 in assay [3] and in assay [2] was over 10 µM in each case.

On to `O=C(NCCN1CCOCC1)c1cc2c(Nc3ccc(OC(F)(F)F)cc3)ncnc2s1` [drawing 343], for which the IC50 in assay [3] and in assay [2] was over 10 µM each time.
